Test results taken from patent US20190374554A1, “USE OF OXYGENATED CHOLESTEROL SULFATES (OCS) TO TREAT INFLAMMATORY SKIN DISEASE AND SKIN LESIONS” (Virginia Commonwealth University, priority 2016, published 2019).

Tests used:
[1] = tested on: IMQ-induced psoriasis-like back skin and ear lesions; experiment: Imiquimod (IMQ)-induced psoriasis mouse model, skin scoring (erythema, scaling, thickness); type: in vivo, Balb/C mice; conditions: mice; intradermal injection into back lesion Days 1 and 4; vs vehicle (FIG. 2)
Procedure: The subjects for the study were 40 male Balb/C mice (18-22 g). […] The backs of all mice were shaved for an area of 1.5 cm×2 cm.
Formulation A was a clear solution of 25 HC3S sodium salt (30 mg/mL) in a solution vehicle (250 mg/mL hydroxypropyl betadex (beta cyclodextrin, 2-hydroxypropyl ether, a partially substituted poly(hydroxypropyl) ether of beta cyclodextrin) and 10 mM sodium phosphate buffer in sterile water). Vehicle was stored at 2-8° C. storage and placed at room temperature for 30 min. prior to mixing with powdered 25HC3S just prior to use. Dissolution of the 25HC3S in Vehicle A was rapid and appeared to be complete upon mixing.
Formulation B was a milky suspension of 25HC3S sodium salt (25 mg/mL) in a suspension vehicle (30 mg/mL polyethylene glycol 3350, 3 mg/mL polysorbate 80, 7.5 mg/mL NaCl, and 10 mM sodium phosphate buffer in sterile water). The 25HC3S was milled using a Fluid Energy Model 00 Jet-O-Mizer™ to approximately a 5 microns average particle size (measured by a Malvern Mastersizer 2000 equipped with a hydro 2000S dispersion cell) prior to addition to the vehicle. […]
Mice were monitored for signs of distress and daily photos of the back lesions were taken. Erythema, scaling, and thickness of the back skin was scored daily on a scale from 0 to 4 by an independent scorer (blind), where 0=none; 1=slight; 2=moderate; 3=marked; and 4=very marked. […]

[2] = Drug solubility / drug loading in solvents and compositions; type: physicochemical
psoriasis plaques = experiment: Proof of concept study of single intralesional doses in psoriasis patients, microplaque assay (LPSI); type: in vivo, human; conditions: single intralesional dose (3 injections of 100 μL); 14 day scoring period
Text: The objectives of this study were: • To establish preliminary evidence for the efficacy of intralesionally injected 25HC3S in patients with psoriasis, as assessed by microplaque assay. • To assess the safety of 25HC3S in patients with psoriasis. • Compare evidence for the efficacy of different formulations of intralesionally injected 25HC3S.
• This trial was a double-blind, within-participant, randomized, vehicle and active comparator-controlled, single-dose study. Participants attended a screening visit within 28 days of dosing. A target plaque(s) of psoriasis was selected. • Day 0: each participant was treated with 2 different formulations of study drug, 2 vehicle formulations, one active comparator and one untreated area (6 treatments in total). Each treatment was administered to every participant as an intralesional injection, with the exception of the untreated area. • Participants were required to return for outpatient visits for microplaque assessments at Day 1, Day 2, Day 7 and Day 14. Treatment Formulations: Table 12 lists the formulated drug products and Table 13 lists the amounts injected.
Ten patients with mild to severe psoriasis were enrolled into this clinical trial after screening. […]
The effect of 25HC3S in psoriasis was assessed by the change of LPSI score as compared to vehicle or untreated in this microplaque assay. […]

Hannover Wistar rats [3] = experiment: Two-week subcutaneous (SC) injection study in rats; type: in vivo
Procedure: In a separate study, Hannover Wistar rats (n=12/sex/dose group) received daily SC injections of a solution of 30 mg/mL of 25HC3S sodium salt in vehicle (250 mg/mL hydroxypropyl-β-cyclodextrin in 10 mM sodium phosphate buffer in sterile water) for 2 weeks. Dose levels of 0 (vehicle), 15, 45 and 150 mg/kg of 25HC3S sodium salt were administered in dose volumes of 5.0, 0.5, 1.5 and 5.0 mL/kg. Following 14 days of dose administration, all rats were euthanized and necropsied

Hannover Wistar rats [4] = experiment: Acute single dose intramuscular (IM) injection study in rats; type: in vivo; conditions: minimal to moderate, drug-treated vs vehicle
Procedure: For the acute single dose study, Hannover Wistar rats (n=5/sex/dose group) received a single IM injection followed by 2 and 14 day observation periods. The solution that was tested included 30 mg/mL of 25HC3S sodium salt in vehicle (250 mg/mL hydroxypropyl-β-cyclodextrin in 10 mM sodium phosphate buffer in sterile water). Dose levels of 0 (vehicle), 3, 10 and 30 mg/kg of 25HC3S sodium salt were administered in dose volumes of 1.0, 0.1, 0.3 and 1.0 mL/kg. […] The changes were less severe (minimal only) after 14 days, indicating partial recovery; no clear effect of the presence of 25HC3S or vehicle volume was observed.

## C[C@H](CCCC(C)(C)O)[C@H]1CC[C@H]2[C@@H]3CC=C4C[C@@H](OS(=O)(=O)[O-])CC[C@]4(C)[C@H]3CC[C@]12C.[Na+] [Formulation 25HC3S, 5-cholesten-3, 25-diol, 3-sulfate]
[1]
  erythema (redness) of the back skin: promotes reduction in erythema
[2]; 6 wt % 25HC3S, compositions of Tables 31 and 32
  state of drug in the prepared compositions: all in solution
[2]; Carbopol based creams or gels
  maximum drug loading achieved: 1 wt %
[2]; in EtOH
  drug solubility: ~3 mg/mL
[2]; in PEG 400
  drug solubility: ~130 mg/mL
[2]; in PG
  drug solubility: ~30 mg/mL
Psoriasis plaques
  effect on psoriatic plaques based on LPSI score: exhibited efficacy in psoriatic plaques by reducing LPSI
Hannover Wistar rats [3]; male and female rats, 150 mg/kg daily SC, 2 weeks
  higher mean liver weights compared to controls: 10%
Hannover Wistar rats [3]; male rats, 150 mg/kg daily SC, after 2 weeks
  lower mean serum cholesterol compared to vehicle controls: 22%
Hannover Wistar rats [3]; rats, 150 mg/kg daily SC, 2 weeks, vs vehicle controls
  Cytoplasmic vacuolation of the proximal tubules of the kidneys: severity was similar in vehicle control and rats
Hannover Wistar rats [3]; rats, daily SC 2 weeks, compared to vehicle (FIG. 1A)
  collagen degeneration and hemorrhage at the injection sites: tended to be lower
Hannover Wistar rats [3]; rats, daily SC 2 weeks, seen in vehicle controls and drug-treated rats
  alveolar macrophages in the lungs: minimal increase
Hannover Wistar rats [4]
  muscle degeneration/regeneration, hemorrhage and inflammation in injected muscles: incidence and severity similar in vehicle and drug-treated rats
